Our source for the minimal effective concentration values is patent US10570129B2 (Zoetis Services LLC, priority 2015, dated 2020).

For one test, the system named is Haemonchus contortus L3. The test is described as follows: microbe, parasite or virus in culture. Format: cell-based. The following applies: Haemonchus contortus, 96 h, read-out: HcL3 Minimal Effective Concentration (MEC).
The subject of a further test is D. immitis microfilariae. The test is described as follows: Dirofilaria immitis, microfilariae (DiMF) in vitro motility assay. Type of test: cell-based. The following applies: Dirofilaria immitis, 72 h, read-out: DiMF minimally effective dose (MEC).

Some results are limits rather than exact numbers.

Consider `O=C(NCc1ccnc(O)c1)n1c2c(c3cc(C(F)(F)F)ccc31)CN(C/C=C/c1ccc(F)cc1F)CC2` [Example 453, (E)-2-(3-(2,4-difluorophenyl)allyl)-N-((2-hydroxypyridin-4-yl)methyl)-8-(trifluoromethyl)-1,2,3,4-tetrahydro-5H-pyrido[4,3-b]indole-5-carboxamide], for which the minimal effective concentration is more than 100 µM with Haemonchus contortus L3 and 10 µM in the test with D. immitis microfilariae.
The like results for `N#Cc1ccc2c(c1)c1c(n2C(=O)NCc2ccnc(Cl)c2)CCN(C/C=C/c2c(F)cc(F)cc2F)C1` [Example 76, (E)-N-((2-chloropyridin-4-yl)methyl)-8-cyano-2-(3-(2,4,6-trifluorophenyl)allyl)-1,2,3,4-tetrahydro-5H-pyrido[4,3-b]indole-5-carboxamide] were, in that order, 0.1 µM and more than 100 µM.
The like results for `O=C(NCc1ccnc(Cl)c1)n1c2c(c3c(Cl)cccc31)CN(C/C=C/c1ccc(C(F)(F)F)cn1)CC2` [Example 207, (E)-9-chloro-N-((2-chloropyridin-4-yl)methyl)-2-(3-(5-(trifluoromethyl)-pyridin-2-yl)allyl)-1,2,3,4-tetrahydro-5H-pyrido[4,3-b]indole-5-carboxamide] were, in that order, 0.3 µM and 10 µM.
The like results for `O=C(NCc1ccnc(F)c1)n1c2c(c3cc(F)c(Cl)cc31)CN(C/C=C/c1ccc(Cl)c(F)c1)CC2` [Example 309, (E)-7-chloro-2-(3-(4-chloro-3-fluorophenyl)allyl)-8-fluoro-N-((2-fluoropyridin-4-yl)methyl)-1,2,3,4-tetrahydro-5H-pyrido[4,3-b]indole-5-carboxamide] were, in that order, 0.3 µM and 1.8 µM.
For `O=C(NCc1ccnc(Cl)c1)n1c2c(c3cc(C(F)(F)F)ccc31)CN(C/C=C/c1ccc(Cl)cc1)CC2` [Example 332, (E)-2-(3-(4-chlorophenyl)allyl)-N-((2-chloropyridin-4-yl)methyl)-8-(trifluoromethyl)-1,2,3,4-tetrahydro-5H-pyrido[4,3-b]indole-5-carboxamide], the minimal effective concentration in the test with Haemonchus contortus L3 was determined as 1 µM; in the test with D. immitis microfilariae, 13.5 µM.
For `Cc1ccc2c(c1)c1c(n2C(=O)NCc2ccnc(Cl)c2)CCN(C/C=C/c2ccc(Cl)c(Cl)c2)C1` [Example 432, (E)-N-((2-chloropyridin-4-yl)methyl)-2-(3-(3,4-dichlorophenyl)allyl)-8-methyl-1,2,3,4-tetrahydro-5H-pyrido[4,3-b]indole-5-carboxamide], the minimal effective concentration with Haemonchus contortus L3 was determined as 1 µM; with D. immitis microfilariae, 57.4 µM.
As for `O=C(NCc1ccnc(Cl)c1)n1c2c(c3ccc(OC(F)(F)F)cc31)CN(C/C=C/c1ccc(F)cc1Cl)CC2` [Example 346, (E)-2-(3-(2-chloro-4-fluorophenyl)allyl)-N-((2-chloropyridin-4-yl)methyl)-7-(trifluoromethoxy)-1,2,3,4-tetrahydro-5H-pyrido[4,3-b]indole-5-carboxamide], the values for the minimal effective concentration in the test on Haemonchus contortus L3 and in the test on D. immitis microfilariae were 0.5 µM and 1.8 µM, respectively.
The like results for `O=C(NCc1ccnc(F)c1)n1c2c(c3ccc(Cl)cc31)CN(C/C=C/c1ccc(F)cc1F)CC2` [Example 226, (E)-7-chloro-2-(3-(2,4-difluorophenyl)allyl)-N-((2-fluoropyridin-4-yl)methyl)-1,2,3,4-tetrahydro-5H-pyrido[4,3-b]indole-5-carboxamide] were, in that order, more than 100 µM and 1.8 µM.
The like results for `COc1cc2c(cc1Br)c1c(n2C(=O)NCc2ccnc(Cl)c2)CCN(C/C=C/c2ccc(Cl)cc2)C1` [Example 195, (E)-8-bromo-2-(3-(4-chlorophenyl)allyl)-N-((2-chloropyridin-4-yl)methyl)-7-methoxy-1,2,3,4-tetrahydro-5H-pyrido[4,3-b]indole-5-carboxamide] were, in that order, 0.5 µM and 5.7 µM.
The like results for `O=C(NCc1cnc(Cl)s1)n1c2c(c3ccc(OC(F)(F)F)cc31)CN(C/C=C/c1ccc(Cl)cc1)CC2` [Example 382, (E)-2-(3-(4-chlorophenyl)allyl)-N-((2-chlorothiazol-5-yl)methyl)-7-(trifluoromethoxy)-1,2,3,4-tetrahydro-5H-pyrido[4,3-b]indole-5-carboxamide] were, in that order, 3.3 µM and 10 µM.
Consider `O=C(NCc1ccnc(Cl)c1)n1c2c(c3cc(C(F)(F)F)ccc31)CN(C/C=C/c1ccc(Cl)c(Cl)c1)CC2` [Example 333, (E)-N-((2-chloropyridin-4-yl)methyl)-2-(3-(3,4-dichlorophenyl)allyl)-8-(trifluoromethyl)-1,2,3,4-tetrahydro-5H-pyrido[4,3-b]indole-5-carboxamide], for which the values for the minimal effective concentration in the test with Haemonchus contortus L3 and in the test on D. immitis microfilariae were 1.8 µM and more than 100 µM, respectively.
The like results for `N#Cc1ccc2c3c(n(C(=O)NCc4ccnc(Cl)c4)c2c1)CCN(C/C=C/c1ccc(F)c(Br)c1)C3` [Example 12, (E)-2-(3-(3-bromo-4-fluorophenyl)allyl)-N-((2-chloropyridin-4-yl)methyl)-7-cyano-1,2,3,4-tetrahydro-5H-pyrido[4,3-b]indole-5-carboxamide] were, in that order, 1.8 µM and 18.2 µM.
The like results for `O=C(NCc1ccnc(Cl)c1)n1c2c(c3c(C(F)(F)F)cccc31)CN(C/C=C/c1ccc(Cl)cc1)CC2` [Example 157, (E)-2-(3-(4-chlorophenyl)allyl)-N-((2-chloropyridin-4-yl)methyl)-9-(trifluoromethyl)-1,2,3,4-tetrahydro-5H-pyrido[4,3-b]indole-5-carboxamide] were, in that order, 3.8 µM and 11.9 µM.
The like results for `O=C(NCc1ccnc(F)c1)n1c2c(c3cc(Cl)ccc31)CN(C/C=C/c1ccc(Cl)cc1F)CC2` [Example 255, (E)-8-chloro-2-(3-(4-chloro-2-fluorophenyl)allyl)-N-((2-fluoropyridin-4-yl)methyl)-1,2,3,4-tetrahydro-5H-pyrido[4,3-b]indole-5-carboxamide] were, in that order, 0.3 µM and 18.2 µM.
Take `O=C(NCc1ccnc(Cl)c1)n1c2c(c3cc(F)c(OC(F)(F)F)cc31)CN(C/C=C/c1ccc(Cl)cc1)CC2` [Example 469, (E)-2-(3-(4-chlorophenyl)allyl)-N-((2-chloropyridin-4-yl)methyl)-8-fluoro-7-(trifluoromethoxy)-1,2,3,4-tetrahydro-5H-pyrido[4,3-b]indole-5-carboxamide]: the minimal effective concentration is 1 µM in the test with Haemonchus contortus L3 and more than 100 µM in the test on D. immitis microfilariae.
Take `N#Cc1ccc2c(c1)c1c(n2C(=O)NCc2ccnc(Cl)c2)CCN(C/C=C/c2ccc(Cl)c(F)c2F)C1` [Example 82, (E)-2-(3-(4-chloro-2,3-difluorophenyl)allyl)-N-((2-chloropyridin-4-yl)methyl)-8-cyano-1,2,3,4-tetrahydro-5H-pyrido[4,3-b]indole-5-carboxamide]: the minimal effective concentration in the test on Haemonchus contortus L3 was 0.2 µM; in the test with D. immitis microfilariae it was more than 100 µM.
The like results for `O=C(NCc1ccnc(F)c1)n1c2c(c3cc(Cl)ccc31)CN(C/C=C/c1ccc(F)c(F)c1)CC2` [Example 259, (E)-8-chloro-2-(3-(3,4-difluorophenyl)allyl)-N-((2-fluoropyridin-4-yl)methyl)-1,2,3,4-tetrahydro-5H-pyrido[4,3-b]indole-5-carboxamide] were, in that order, 0.1 µM and 3.3 µM.
